Molecules are shown by their SMILES. Active and inactive are the calls of the source. The calls are words filed in the database; no cut-off is given here. Where a SMILES comes first, the peptide text is derived from it. Bridges are numbered along the chain shown (N, C = ends). [ ]: non-standard residue; d: D form. hArg = N=C(N)NCCCC[C@H](N)C(=O)O; Mpa = O=C(O)CCS

Here are results for 5 compounds from ChEMBL document CHEMBL4184154, “Docking based design of diastereoisomeric MTCA as GPIIb/IIIa receptor inhibitor” (Bioorg Med Chem Lett, 2017).

Test [1] deals with T1, Integrin subunit alpha 2b/beta-3 (Rattus norvegicus) (UniProt D3ZAC0+Q8R2H2). Description: Inhibition of GP2b/3a in rat platelet-rich plasma assessed as reduction in arachidonic acid-induced platelet aggregation at 10^-8 to 10^-5 M after 5 mins by aggregometric analysis.
The subject of the next test is Platelet. Description: Antiplatelet activity in rat platelet-rich plasma assessed as inhibition of arachidonic acid-induced platelet aggregation by atomic force microscopic method. It counts as functional.
Test [2] concerns Rattus norvegicus. Description: Anti-thrombotic activity in Sprague-Dawley rat arterial thrombosis model assessed as reduction in thrombus weight at 1 umol/kg, po pretreated for 30 mins followed by thrombosis induction measured after 15 mins. The class given is functional, organism-based.
In test [3] the test system is Rattus norvegicus. Description: Antiplatelet activity in Sprague Dawley rat arterial thrombosis model assessed as downregulation of GP2b/3a protein expression in plasma administered at 1 umol/kg, po by ELISA. It counts as functional, organism-based. (In general: ELISA stands for enzyme-linked immunosorbent assay.)
Test [4] deals with T2, Integrin subunit alpha 2b/beta-3 (Rattus norvegicus, UniProt D3ZAC0+Q8R2H2).
T2 sequence (D3ZAC0 whole entry): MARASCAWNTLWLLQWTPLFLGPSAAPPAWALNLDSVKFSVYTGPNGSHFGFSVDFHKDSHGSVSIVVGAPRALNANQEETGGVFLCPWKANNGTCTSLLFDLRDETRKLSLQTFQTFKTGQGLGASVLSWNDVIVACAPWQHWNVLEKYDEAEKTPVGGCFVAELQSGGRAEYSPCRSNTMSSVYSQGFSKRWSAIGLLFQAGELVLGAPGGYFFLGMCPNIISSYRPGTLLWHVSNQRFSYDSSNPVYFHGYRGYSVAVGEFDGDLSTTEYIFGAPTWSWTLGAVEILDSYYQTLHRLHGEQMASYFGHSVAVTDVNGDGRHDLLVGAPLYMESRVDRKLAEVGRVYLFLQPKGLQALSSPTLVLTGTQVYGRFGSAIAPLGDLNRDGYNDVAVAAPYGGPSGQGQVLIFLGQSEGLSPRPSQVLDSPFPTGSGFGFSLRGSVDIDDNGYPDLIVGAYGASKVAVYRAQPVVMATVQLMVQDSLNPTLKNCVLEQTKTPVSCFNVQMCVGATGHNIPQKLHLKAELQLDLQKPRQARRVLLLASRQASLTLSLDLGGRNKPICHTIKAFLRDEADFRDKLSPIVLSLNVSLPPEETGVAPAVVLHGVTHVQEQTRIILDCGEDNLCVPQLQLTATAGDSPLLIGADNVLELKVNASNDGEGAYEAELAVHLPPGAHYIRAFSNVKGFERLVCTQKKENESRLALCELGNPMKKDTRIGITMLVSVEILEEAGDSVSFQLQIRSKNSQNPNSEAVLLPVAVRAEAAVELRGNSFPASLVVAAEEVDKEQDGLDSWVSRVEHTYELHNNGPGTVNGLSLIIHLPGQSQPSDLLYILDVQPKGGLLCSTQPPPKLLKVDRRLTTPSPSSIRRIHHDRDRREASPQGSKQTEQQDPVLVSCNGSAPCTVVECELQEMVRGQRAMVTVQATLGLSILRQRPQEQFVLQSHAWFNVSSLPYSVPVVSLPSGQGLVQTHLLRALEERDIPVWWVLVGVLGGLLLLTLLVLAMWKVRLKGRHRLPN
T2 sequence (Q8R2H2 whole entry): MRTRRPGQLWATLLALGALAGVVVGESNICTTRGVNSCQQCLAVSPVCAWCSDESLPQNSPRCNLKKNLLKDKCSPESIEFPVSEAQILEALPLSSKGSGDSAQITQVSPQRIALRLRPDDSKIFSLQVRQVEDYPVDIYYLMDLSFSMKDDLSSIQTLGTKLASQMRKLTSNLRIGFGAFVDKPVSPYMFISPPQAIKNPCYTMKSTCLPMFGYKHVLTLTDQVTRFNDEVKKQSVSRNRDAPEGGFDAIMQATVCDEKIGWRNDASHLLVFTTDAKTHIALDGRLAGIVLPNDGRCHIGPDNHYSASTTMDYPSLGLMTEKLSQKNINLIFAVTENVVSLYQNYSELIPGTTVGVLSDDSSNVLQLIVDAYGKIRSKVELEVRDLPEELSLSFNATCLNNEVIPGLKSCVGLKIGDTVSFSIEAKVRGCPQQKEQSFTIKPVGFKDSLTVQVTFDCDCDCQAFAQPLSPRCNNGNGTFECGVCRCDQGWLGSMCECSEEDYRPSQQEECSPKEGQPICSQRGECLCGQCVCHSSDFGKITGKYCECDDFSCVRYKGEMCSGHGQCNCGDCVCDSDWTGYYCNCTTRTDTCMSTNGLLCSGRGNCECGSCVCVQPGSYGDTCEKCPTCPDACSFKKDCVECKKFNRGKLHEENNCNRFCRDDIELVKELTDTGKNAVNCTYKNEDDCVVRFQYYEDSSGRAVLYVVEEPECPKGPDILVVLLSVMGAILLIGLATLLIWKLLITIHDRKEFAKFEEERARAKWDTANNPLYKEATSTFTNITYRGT
As to the kind of experiment: Binding affinity to GP2b/3a in rat blood assessed as conformational change by measuring soluble GP2b/3a levels after 12 hrs by UV-spectrophotometric analysis.

Test [5] concerns Rattus norvegicus. As to the kind of experiment: Anti-thrombotic activity in Sprague-Dawley rat arterial thrombosis model assessed as reduction in thrombus weight at 16.7 umol/kg, po pretreated for 30 mins followed by thrombosis induction measured after 15 mins. The class given is functional, organism-based.
Test [6] concerns the target T1, Integrin subunit alpha 2b/beta-3 (Rattus norvegicus). Description: Inhibition of GP2b/3a in rat platelet-rich plasma assessed as reduction in arachidonic acid-induced platelet aggregation at 10^-8 to 10^-2 M after 5 mins by aggregometric analysis.

Turning to `N=C(N)NCCCC[C@@H]1NC(=O)CCSSC[C@@H](C(N)=O)NC(=O)[C@@H]2CCCN2C(=O)[C@H](Cc2c[nH]c3ccccc23)NC(=O)[C@H](CC(=O)O)NC(=O)CNC1=O` ([Mpa][hArg]GDWPC-NH2; disulfide 1-7), the inhibition result in test [1] was “Active”.

As to `C[C@@H]1N[C@H](C(=O)O)Cc2c1[nH]c1ccccc21`, in the test with Platelet, the Activity entry is “Dose-dependent effect” and the MEC was found to be 1 ×10⁻⁵ M. For the same compound, in the test with Rattus norvegicus [2], the result was Active. The result in the test on Rattus norvegicus [3] was Active. The inhibition result in test [1] is “Active”. The EC50 in test [4] came to 1660 nM.

Take `C[C@H]1N[C@H](C(=O)O)Cc2c1[nH]c1ccccc21`: in the test on Platelet, the Activity entry is “Dose-dependent effect”. Further, the MEC in the test with Platelet was found to be 1 ×10⁻⁶ M. Further, the result in the test with Rattus norvegicus [2] and in the test on Rattus norvegicus [3] was Active. Further, the inhibition result in test [1] is “Active”. Also, the 50% effective concentration (EC50) in test [4] came out at 1160 nM.

In the case of `CC(=O)Oc1ccccc1C(=O)O`, the result in the test with Rattus norvegicus [5] was Active.

Consider `N=C(N)NCCC[C@H](N)C(=O)NCC(=O)N[C@@H](CC(=O)O)C(=O)N[C@@H](CO)C(=O)O`, for which the inhibition result in test [6] is “Active”.

What is called EC50 is the concentration needed to bring the measured effect to its halfway point.
